From patent US8722629B2, “Auristatin derivatives and use thereof” (Seattle Genetics, Inc., priority 2010, dated 2014) come the findings set out here.

The test system of data set [1] is human renal cancer cell line 786-0. Kind of data set: Antiproliferative effect on the 786-0 RCC cell line (MTT assay). To be noted: incubation 48 h to 96 h. Format: cell-based. The method, then:
B-1. Determination of the Antiproliferative Effect on the 786-0 RCC Cell Line:
A defined cell number of the human renal cancer cell line 786-0 was sown in a 96-well microtiter plate in complete medium (2500 or 7000 cells/well) and incubated at 37° C./5% CO2 overnight. After 18 h, the sowing medium was replaced by serum-free medium or medium with 2% FCS. Treatment was initiated by addition of the respective test substance in varying concentration (10^−5 M to […]). The chosen incubation times were from 48 h to 96 h. Proliferation was determined with the aid of the MTT assays (ATCC, Manassas, Va., USA, catalogue No. 30-1010K). After the incubation time, the MTT reagent was incubated with the cells for 4 h, and the cells were subsequently lysed by adding the detergent overnight. The dye formed was detected at 570 nm. […] The data obtained from this test are triple determinations, and at least two independent experiments were carried out.
In general terms: Tetrazolium dyes change colour on reduction, which living cells bring about.

Data set [2] relates to human colon carcinoma cell line HT29 wt (wild type). Description: Antiproliferative effect on the HT29 wt cell line (MTT assay). Format: cell-based. The conditions noted are these: 10% FCS, incubation 48 h to 96 h. Here is the method:
B-2. Determination of the Antiproliferative Effect on the HT29 Wt Cell Line:
A defined cell number of the human colon carcinoma cell line HT29 wt (wild type) was sown in a 96-well microtiter plate in complete medium (10% FCS-RPMI) (2500 cells/well) and incubated at 37° C./5% CO2 overnight. After 18 h, the sowing medium was replaced by fresh medium with 10% FCS. Treatment was initiated by addition of the respective test substance. From the substances to be investigated, dose/activity curves in a concentration range of from 10^−5 M to 10^−14 M (1:10-dilution series) were determined. The chosen incubation times were from 48 h to 96 h. Pro-liferation was determined with the aid of the MTT assays (ATCC, Manassas, Va., USA, catalogue No. 30-1010K). After the incubation time, the MTT reagent was incubated with the cells for 4 h, and the cells were subsequently lysed by adding the detergent overnight. The dye formed was detected at 570 nm. Proliferation of cells which had not been treated with test substance, but had otherwise been treated identically, was defined as 100%. The data obtained from this test are triple determinations, and at least two independent experiments were carried out.

Data set [3] is described as follows: Plasma stability in vitro, rat plasma. The format is in vitro ADME. To be noted: male, Wistar, rat plasma (Li heparin), 37° C., Method A (HPLC). Here is the method: B-4. Determination of the Plasma Stability in vitro:
1 mg of the test substance in question was dissolved in 0.5 ml of acetonitrile/DMSO (9:1). From this solution, 20 μl were removed and added to 1 ml of rat or human plasma at 37° C. (plasma of male Wistar rats with Li heparin from Harlan & Winkelmann or fresh human leukocyte-depleted plasma originating from a whole blood sample). From this plasma solution, which was shaken vigorously, 100 μl aliquots were removed immediately after addition of the sample (initial value as reference) and then after 5, 10, 30, 60, 120, 180 and 240 minutes and optionally after 24 hours and added to 300 μl of acetonitrile. The precipitated plasma proteins were removed by centrifugation at 5000 rpm for 10 minutes, and 30 μl of the supernatant were analysed by HPLC for its content of unmodified test substance. Quantification was via the area percentages of the corresponding peaks.
HPLC Method for Rat Plasma:
Instrument: Agilent 1200 with DAD, binary pump, autosampler, column oven and thermostat; column: Kromasil 100 C18, 250 mm×4 mm, […]; column temperature: 45° C.; mobile phase A: 5 ml of perchloric acid/1 of water, mobile phase B: acetonitrile; gradient: 0-8 min 98% A, 2% B; 8-15 min 56% A, 44% B; […] 10% A, 90% B; 20-21 min 10% A, 90% B; […] 98% A, 2% B; […] 98% A, 2% B; flow rate: 2 ml/min; UV detection: 220 nm.
The test substance was incubated in rat or human plasma at 37° C. over a period of 5 h with gentle stirring. At different points in time (0, 2, 5, 10, 20, 30, 60, 120, 180 and 300 minutes), a 100 μl aliquot was removed. Following addition of internal standard (10 μl), the proteins were precipitated by addition of 200 μl of acetonitrile and the mixture was centrifuged in an Eppendorf centrifuge for 5 minutes. After addition of 150 μl of ammonium acetate buffer pH 3 to 150 μl of the supernatant, the content of unmodified test substance was analysed by LC/MSMS.

[4] abbreviates: Homo sapiens, 786-0, 786-0 cells.
The mark [5] stands for this setting: Homo sapiens, HT-29, HT29 wt cells.

Structures can show the parent of a compound that is named as a salt. Starred links: 1 amine or outer side, 2 acyl side, 3 side chain; linkers in the order of their positions; H or OH if unused. Non-standard residues stand in square brackets, D forms with d. Residues, ends and D or L forms follow the SMILES beside them. *: point of attachment. NMeVal(N-(CH2)3COOH) = CC(C)[C@@H](C(=O)*)N(C)CCCC(=O)O; Dolaproine = CO[C@@H]([C@@H]1CCCN1)[C@@H](C)C(=O)O; X4 = O=C([C@]1(N[*:1])C[C@H]1c1ccccc1)[*:2]; Dil = CC[C@H](C)[C@H](NC)[C@@H](CC(=O)O)OC; X7 = COC(=O)CCCN(C)[C@H](C(=O)*)C(C)C; αMeF = C[C@](N)(Cc1ccccc1)C(=O)O; X5 = CC(C)[C@@H](C(=O)*)N(C)CCO; Oxazinan2yl(1,2) = C1CCN(*)OC1; NMeV = CN[C@H](C(=O)O)C(C)C; X3 = c1ccc2c(c1)CON(*)C2; X6 = C1=CC2CCC1ON2*

In general, IC50 refers to the concentration that gives 50% inhibition. Read a high IC50 as weaker potency. As for `CC[C@H](C)[C@@H]([C@@H](CC(=O)N1CCC[C@H]1[C@H](OC)[C@@H](C)C(=O)N[C@@H](Cc1ccccc1)C(=O)N1CCCCO1)OC)N(C)C(=O)[C@@H](NC(=O)[C@H](C(C)C)N(C)CCCC(=O)O)C(C)C` [Example 24, N-(3-Carboxypropyl)-N-methyl-L-valyl-N-[(3R,4S,5S)-3-methoxy-1-{(2S)-2-[(1R,2R)-1-methoxy-2-methyl-3-{[(2S)-1-(1,2-oxazinan-2-yl)-1-oxo-3-phenylpropan-2-yl]amino}-3-oxopropyl]-pyrrolidin-1-yl}-5-methyl-1-oxoheptan-4-yl]-N-methyl-L-valinamide] ({NMeVal(N-(CH2)3COOH)}-V[Dil][Dolaproine]F-{Oxazinan2yl(1,2)}), the IC50 in data set [1] (setting [4]) was 5 nM; in data set [2] (setting [5]), 1.5 nM. On to `CC[C@H](C)[C@@H]([C@@H](CC(=O)N1CCC[C@H]1[C@H](OC)[C@@H](C)C(=O)N[C@@H](Cc1ccccc1)C(=O)N1Cc2ccccc2CO1)OC)N(C)C(=O)[C@@H](NC(=O)[C@@H](NC)C(C)C)C(C)C` [Example 8, N-Methyl-L-valyl-N-[(3R,4S,5S)-1-{(2S)-2-[(1R,2R)-3-{[(2S)-1-(1,4-dihydro-3H-2,3-benzoxazin-3-yl)-1-oxo-3-phenylpropan-2-yl]amino}-1-methoxy-2-methyl-3-oxopropyl]pyrrolidin-1-yl}-3-methoxy-5-methyl-1-oxoheptan-4-yl]-N-methyl-L-valinamide, trifluoroacetic acid salt] (H-[NMeV]V[Dil][Dolaproine]F-X3), for which, in data set [1] (setting [4]), the IC50 turned out to be 2.4 nM. Same read-out and setting: the result for `CC[C@H](C)[C@@H]([C@@H](CC(=O)N1CCC[C@H]1[C@H](OC)[C@@H](C)C(=O)N[C@@]1(C(=O)N2CCCCO2)C[C@@H]1c1ccccc1)OC)N(C)C(=O)[C@@H](NC(=O)[C@H](C(C)C)N(C)CCCCCC(=O)O)C(C)C` [Example 26, N-(5-Carboxypentyl)-N-methyl-L-valyl-N-[(3R,4S,5S)-3-methoxy-1-{(2S)-2-[(1R,2R)-1-methoxy-2-methyl-3-{[(1S,2R)-1-(1,2-oxazinan-2-ylcarbonyl)-2-phenylcyclopropyl]amino}-3-oxopropyl]-pyrrolidin-1-yl}-5-methyl-1-oxoheptan-4-yl]-N-methyl-L-valinamide] reads 18 nM.

For orientation: half-life means how long it takes for the measured level to halve. High values mean slow decline, low ones rapid decline. The compound `CC[C@H](C)[C@@H]([C@@H](CC(=O)N1CCC[C@H]1[C@H](OC)[C@@H](C)C(=O)N[C@@]1(C(=O)N2CCCCO2)C[C@H]1c1ccccc1)OC)N(C)C(=O)[C@@H](NC(=O)[C@@H](NC)C(C)C)C(C)C` [Example 16, N-Methyl-L-valyl-N-[(3R,4S,5S)-3-methoxy-1-{(2S)-2-[(1R,2R)-1-methoxy-2-methyl-3-{[(1S,2S)-1-(1,2-oxazinan-2-ylcarbonyl)-2-phenylcyclopropyl]amino}-3-oxopropyl]pyrrolidin-1-yl}-5-methyl-1-oxoheptan-4-yl]-N-methyl-L-valinamide, trifluoroacetic acid salt] (H-[NMeV]V[Dil][Dolaproine][X4]-{Oxazinan2yl(1,2)}) returned an IC50 in data set [1] (setting [4]) of 8 nM. Also, the half-life at 39.2 µg/ml in data set [3] is 0.75 h.

With `CC[C@H](C)[C@@H]([C@@H](CC(=O)N1CCC[C@H]1[C@H](OC)[C@@H](C)C(=O)N[C@@H](Cc1ccccc1)C(=O)O)OC)N(C)C(=O)[C@@H](NC(=O)[C@@H](NC)C(C)C)C(C)C` [MMAF, Monomethylauristatin F, reference compound] (H-[NMeV]V[Dil][Dolaproine]F-OH), the results for the half-inhibitory concentration (IC50) in data set [1] (786-0 cells) and in data set [2] (HT29 wt cells) were 260 nM and 10 nM, respectively.

In data set [2] (setting [5]), `CC[C@H](C)[C@@H]([C@@H](CC(=O)N1CCC[C@H]1[C@H](OC)[C@@H](C)C(=O)N[C@@H](Cc1ccccc1)C(=O)N1CCCCO1)OC)N(C)C(=O)[C@@H](NC(=O)[C@H](C(C)C)N(C)CCCC(=O)OC)C(C)C` [Example 29, N-(4-Methoxy-4-oxobutyl)-N-methyl-L-valyl-N-[(3R,4S,5S)-3-methoxy-1-{(2S)-2-[(1R,2R)-1-methoxy-2-methyl-3-{[(2S)-1-(1,2-oxazinan-2-yl)-1-oxo-3-phenylpropan-2-yl]amino}-3-oxopropyl]pyrrolidin-1-yl}-5-methyl-1-oxoheptan-4-yl]-N-methyl-L-valinamide] (X7-V[Dil][Dolaproine]F-{Oxazinan2yl(1,2)}) returned an IC50 of 0.1 nM. Consider `CC[C@H](C)[C@@H]([C@@H](CC(=O)N1CCC[C@H]1[C@H](OC)[C@@H](C)C(=O)N[C@@H](Cc1ccccc1)C(=O)N1OC2C=CC1CC2)OC)N(C)C(=O)[C@@H](NC(=O)[C@@H](NC)C(C)C)C(C)C` (stereo partly drawn) [Example 6, N-Methyl-L-valyl-N-[(3R,4S,5S)-3-methoxy-1-{(2S)-2-[(1R,2R)-1-methoxy-2-methyl-3-{[(2S)-1-(2-oxa-3-azabicyclo[2.2.2]oct-5-en-3-yl)-1-oxo-3-phenylpropan-2-yl]amino}-3-oxopropyl]pyrrolidin-1-yl}-5-methyl-1-oxoheptan-4-yl]-N-methyl-L-valinamide, trifluoroacetic acid salt] (H-[NMeV]V[Dil][Dolaproine]F-X6), for which half-maximal inhibition in data set [1] (setting [4]) (IC50) was put at 0.5 nM. That is a sub-nanomolar value. On to `CC[C@H](C)[C@@H]([C@@H](CC(=O)N1CCC[C@H]1[C@H](OC)[C@@H](C)C(=O)N[C@@H](Cc1c[nH]c2ccccc12)C(=O)N1CCCCO1)OC)N(C)C(=O)[C@@H](NC(=O)[C@@H](NC)C(C)C)C(C)C` [Example 9, N-Methyl-L-valyl-N-[(3R,4S,5S)-1-{(2S)-2-[(1R,2R)-3-{[(2S)-3-(1H-indol-3-yl)-1-(1,2-oxazinan-2-yl)-1-oxopropan-2-yl]amino}-1-methoxy-2-methyl-3-oxopropyl]pyrrolidin-1-yl}-3-methoxy-5-methyl-1-oxoheptan-4-yl]-N-methyl-L-valinamide, trifluoroacetic acid salt] (H-[NMeV]V[Dil][Dolaproine]W-{Oxazinan2yl(1,2)}), for which the IC50 in data set [1] (setting [4]) was 3 nM; in data set [2] (setting [5]), 1.4 nM. The compound `CC[C@H](C)[C@@H]([C@@H](CC(=O)N1CCC[C@H]1[C@H](OC)[C@@H](C)C(=O)N[C@@H](Cc1ccccc1)C(=O)N1CCCCO1)OC)N(C)C(=O)[C@@H](NC(=O)[C@H](C(C)C)N(C)CCO)C(C)C` [Example 2, N-(2-Hydroxyethyl)-N-methyl-L-valyl-N-[(3R,4S,5S)-3-methoxy-1-{(2S)-2-[(1R,2R)-1-methoxy-2-methyl-3-{[(2S)-1-(1,2-oxazinan-2-yl)-1-oxo-3-phenylpropan-2-yl]amino}-3-oxopropyl]pyrrolidin-1-yl}-5-methyl-1-oxoheptan-4-yl]-N-methyl-L-valinamide] (X5-V[Dil][Dolaproine]F-{Oxazinan2yl(1,2)}) came in with an IC50 in data set [2] (setting [5]) of 0.5 nM.

In data set [3], `CC[C@H](C)[C@@H]([C@@H](CC(=O)N1CCC[C@H]1[C@H](OC)[C@@H](C)C(=O)N[C@@](C)(Cc1ccccc1)C(=O)N1CCCCO1)OC)N(C)C(=O)[C@@H](NC(=O)[C@@H](NC)C(C)C)C(C)C` [Example 22, N-Methyl-L-valyl-N-[(3R,4S,5S)-3-methoxy-1-{(2S)-2-[(1R,2R)-1-methoxy-2-methyl-3-{[(2S)-2-methyl-1-(1,2-oxazinan-2-yl)-1-oxo-3-phenylpropan-2-yl]amino}-3-oxopropyl]pyrrolidin-1-yl}-5-methyl-1-oxoheptan-4-yl]-N-methyl-L-valinamide, trifluoroacetic acid salt] (H-[NMeV]V[Dil][Dolaproine][αMeF]-{Oxazinan2yl(1,2)}) had a half-life at 39.2 µg/ml of 2 h.
